The values below come from patent publication US20040132751A1, “Use of desoxypeganine for treating central nervous system symptoms resulting from intoxications by psychotrops” (priority 2001, published 2004).

The assay concerns rats. The assay is described as follows: animal experiments: recovery of cognitive abilities in rats after administration of deoxypeganine. The format is in vivo. As to conditions: restoration did not occur, or occurred only considerably later, in untreated control animals.

SMILES strings stand for the structures.

Consider `c1ccc2c(c1)CN1CCCC1=N2` [deoxypeganine, 1,2,3,9-tetrahydropyrrolo[2,1-b]quinazoline], for which the “recovery of cognitive abilities” value is “able to bring about a recovery of cognitive abilities”.
